These results are taken from patent publication US20230310504A1, “PLATELET MEMBRANE COATED NANOPARTICLES AND USES THEREOF” (CELLO THERAPEUTICS, INC., priority 2020, published 2023).

For assay [1], the system named is MC38 murine colon adenocarcinoma. The assay can be described thus: Therapeutic efficacy in a murine MC38 tumor model (15 µg and reduced 6 µg R848 dosage). Format: in vivo, C57BL/6 mice. Particulars: for long-term survival rate: intratumoral, every other day x3. The procedure: The antitumor efficacy of PNP-R848 was evaluated using an MC38 murine colon adenocarcinoma model in immunocompetent C57BL/6 mice (FIG. 4a). Each animal received a subcutaneous injection of 1 × 10^6 MC38 cells in the right flank, and the average tumor size was allowed to reach ~30-40 mm^3. At this point, the mice started receiving one of the following treatments: 8% sucrose as a negative control, free R848, PEG-NP loaded with R848 (PEG-NP-R848), or PNP-R848, each at a drug dosage of 15 µg per injection. Treatments were administered intratumorally every other day for a total of 3 times, after which the mice were monitored regularly to assess therapeutic efficacy (FIGS. 4b-e). […] Tumor growth was considerably delayed when treating with either free R848 or PEG-NP-R848, but there was significant disease progression in a majority of the mice by approximately 30 days after the start of treatment. […] Treatment efficacy was also evaluated when reducing the drug dosage by 2.5-fold to 6 µg of R848 per injection (FIG. 6).
In order to determine if the surviving animals had developed long-term immunity against MC38 cancer cells, the mice were re-challenged with a 3-fold higher inoculum subcutaneously into the right flank 56 days after initiation of the first treatment (FIGS. 4c,d). For the survivors that had been treated with either dose of PNP-R848, the second tumor challenge was rejected at a 100% rate. […] The remainder of the surviving animals in the other groups all rejected the re-challenge, with no tumor progression observed at least 100 days after the start of the initial treatment.
Therapeutic efficacy in a murine MC38 tumor model. Mice were implanted with 1 × 10^6 MC38 cells subcutaneously into the right flank, which were allowed to grow to an average size of ~30-40 mm^3. The mice were then intratumorally treated every other day for a total of 3 times. […] Tumor growth and mouse weight were monitored every other day. […]
Therapeutic efficacy in a murine MC38 tumor model at a reduced R848 dosage. […] Tumor growth and mouse weight were monitored every other day. […]

Assay [2] has the same test system. The assay can be described thus: Therapeutic efficacy in combination with doxorubicin in MC38 model. Format: in vivo, C57BL/6 mice. As to the method: Therapeutic efficacy of PNP-R848 in combination with chemotherapy was also assessed (FIG. 8). […] Despite some promising initial results, all mice treated with doxorubicin, both with or without PNP-R848, succumbed after re-challenge with a 3-fold higher dose of cancer cells.
Therapeutic efficacy in combination with doxorubicin. Mice were implanted with 1 × 10^6 MC38 cells subcutaneously into the right flank, which were allowed to grow to an average size of ~30-40 mm^3. The mice received intratumoral treatments every other day for a total of 3 times. The treatment groups included: 8% sucrose (n = 6), free doxorubicin (n = 6), and doxorubicin + PNP-R848 (n = 6). Mice received 63 µg of doxorubicin and 15 µg of R848 per dose. For the combination treatment, doxorubicin and PNP-R848 were mixed pre-administration and the animal received one intratumoral injection containing both. Tumor growth and mouse weight were monitored every other day. Progression-free survival was defined as tumor volume < 200 mm^3. All the mice that rejected the initial MC38 inoculum were re-challenged subcutaneously using 3 × 10^6 MC38 cells on day 56 after the start of the first treatment. Five naive C57BL/6 mice that received the same MC38 tumor cell challenge were used as controls to verify tumorigenicity.

For `CCOCc1nc2c(N)nc3ccccc3c2n1CC(C)(C)O` [free R848, Resiquimod], the long-term survival rate in assay [1] (6 µg R848 per injection) is 62.5%; in assay [1] (15 µg R848 per injection), 28.6%. The “overall survival after the tumor re-challenge” value in assay [1] (6-µg dosage, 3-fold higher inoculum, day 56) came out at 37.5%.
Take `COc1cccc2c1C(=O)c1c(O)c3c(c(O)c1C2=O)C[C@@](O)(C(=O)CO)C[C@@H]3O[C@H]1C[C@H](N)[C@H](O)[C@H](C)O1` [doxorubicin]: the survival result in assay [2] (63 µg doxorubicin intratumoral x3) was “prolonged survival, the improvement was modest”. For the same molecule, in assay [2] (3-fold higher dose of cancer cells, day 56), the outcome after re-challenge is “succumbed”.
